US20080108685A1, “Novel Use for Alpha Sympathomimetics Having a 2-Imidazoline Structure” (priority 2004, published 2008)
Like-named read-outs stand apart in the source and are kept apart here.

Key:
[1] = tested on: HRV 14; experiment: high-throughput cytopathic effect inhibitory assay (CPE), HeLa cells infected with HRV 14; assay type: cell-based, human rhinovirus; conditions: HRV 14, HeLa cells, second series of experiments
[2] = tested on: HRV 14; experiment: plaque reduction assay, HeLa cells infected with HRV 14; assay type: cell-based, human rhinovirus; conditions: for Plaque reduction rel. inhibition: HRV 14, HeLa cells, M.O.I. 0.0004; for Rel. total inhibition: HRV 14, plaque reduction and residual infectiousness combined
[3] = tested on: HRV 14; experiment: residual infectiousness (TCID50/ml) by virus titration, HeLa cells infected with HRV 14; assay type: cell-based, human rhinovirus; conditions: HRV 14, HeLa cells
[4] = tested on: HRV 2; assay type: cell-based, human rhinovirus; conditions: HRV 2, HeLa cells, 72 hours after infection
[5] = tested on: MDCK cells; conditions: dog
[6] = tested on: influenza A virus; assay type: cell-based; conditions: MDCK cells
[7] = dilution 1:2 of 0.003125% (W/V)
[8] = dilution 1:4 of 0.003125% (W/V)
[9] = dilution 1:8 of 0.003125% (W/V)
[10] = dilution 1:16 of 0.003125% (W/V)
[11] = dilution 1:32 of 0.003125% (W/V)

## Cc1cc(C(C)(C)C)c(O)c(C)c1CC1=NCCN1 [oxymetazoline]
[1]; [7]
  CPE inhibition: 50.5%
[1]; [8]
  CPE inhibition: 53.6%
[1]; [9]
  CPE inhibition: 37.5%
[1]; [10]
  CPE inhibition: 5.9%
[2]; [7]
  Plaque reduction rel. inhibition: 44.26%
  Rel. total inhibition: 38.79
[2]; [8]
  Plaque reduction rel. inhibition: 32.98%
  Rel. total inhibition: 26.91
[2]; [9]
  Plaque reduction rel. inhibition: 25.74%
  Rel. total inhibition: 22.25
[2]; [10]
  Plaque reduction rel. inhibition: 17.66%
  Rel. total inhibition: 18.20
[2]; [11]
  Plaque reduction rel. inhibition: 14.26%
  Rel. total inhibition: 13.38
[3]; [7]
  Residual infectiousness rel. inhibition: 33.33%
[3]; [8]
  Residual infectiousness rel. inhibition: 20.83%
[3]; [9]
  Residual infectiousness rel. inhibition: 18.75%
[3]; [10]
  Residual infectiousness rel. inhibition: 18.75%
[3]; [11]
  Residual infectiousness rel. inhibition: 12.50%
[4]; [7]
  CPE inhibition: 40.5%
[4]; [8]
  CPE inhibition: 23.2%
[5]
  active-ingredient concentration at which no effects which reduce the metabolism of the cells arise (non-cytotoxic concentration): 0.005 % (W/V)
[6]; dilution 1:2 of 0.005% (W/V)
  CPE inhibition: 52.8%
[6]; dilution 1:4 of 0.005% (W/V)
  CPE inhibition: 35.5%
[6]; dilution 1:8 of 0.005% (W/V)
  CPE inhibition: 23.1%
[6]; dilution 1:16 of 0.005% (W/V)
  CPE inhibition: 9.1%
